# Experimental data: US4570005A, “Process for the preparation of 2-arylpropyl ether or thioether derivatives” (priority 1980, dated 1986)
# Read-outs that look alike come from different tables or passages of the source.
# What was measured:
# [1] = test system: green peach aphid; test: Test 5: Effect on Green Peach Aphid; type: in vivo; details: Myzus persicae; 100 ppm; mortality class; 24 hours; read-out: Insecticidal Activity
# Protocol: (§1) To a mixture of 20 parts of the compound of the present invention and 20 parts of Sorpol SM-200 (registered tradename for the product supplied by Toho Chemical Industrial Co., Ltd.) was added 60 parts of xylol, and the mixture was suffciently blended. The obtained emulsifiable concentrate was diluted at a predetermined concentration with distilled water, and the obtained dilution was used.
# Seedlings (having 3 to 4 leaves) of an eggplant grown on a pot were inoculated with green peach aphids and the insects were allowed to grow. The number of the insects was counted. A chemical dilution having a concentration of 100 ppm, prepared in the same manner as described in Test 1, was applied with a spray gun at a rate of 10 ml per pot. Then, the pot was placed in a glass green house. After 24 hours, the number of living insects was counted and the mortality was calculated.
# The test was made on three pots, and the average value was calculated. In Table 6, mark "A" indicates a mortality higher than 95%, mark "B" indicates a mortality of 80 to 95%, mark "C" indicates a mortality of 50 to 80%, and mark "D" indicates a mortality lower than 50%.
# [2] = test system: diamond back moth; test: Test 4: Effect on Diamond Back Moth; type: in vivo; details: Plutella
# Summary of the method: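 Compound formulated as an emulsifiable concentrate, diluted in water to 100 or 20 ppm and sprayed at 3 ml per cup onto cabbage leaves holding 10 third-instar larvae. Mortality counted after 24 hours; mean of three cups.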
# [3] = test system: German cockroach; test: Test 7: Effect on German Cockroach; type: in vivo; details: Blattella germanica
# Summary of the method: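 Petri dish floors were treated with 50 or 10 mg/m2 of compound (diluted emulsifiable concentrate) and air-dried. Ten male adult German cockroaches per dish were held at 25° C. Agonized and dead insects were counted after 24 hours, averaging two dishes.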
# [4] = test system: tobacco cutworm; test: Test 2: Tobacco Cutworm Larva Dipping Test, mortality after 24 hours; type: in vivo; details: 24 h
# Summary of the method: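 Second- and fifth-instar larvae dipped 5 s in a water dilution of an emulsifiable concentrate at 100 or 20 ppm, blotted, then held on artificial diet at 25° C. Dead and living larvae counted after 24 hours; mortality averaged over three cups.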
# [5] = Test 8: Fish Toxicity; type: in vivo; details: carp, water; concentration at which 1/2 of the test fishes were killed within 48 hours; read-out: Fish Toxicity, TLm48
# Protocol: A water tank having a width of 60 cm, a length of 30 cm and a height of 40 cm was filled with water, and 10 yearling carps having a body length of about 5 cm were set free in the tank and adapted to the environment in the tank. A test compound was applied so that the concentration in water was 10, 1 or 0.1 ppm. After 48 hours, the numbers of killed and living carps were counted and the influences on the fishes were examined.
# [6] = Test 9: Toxicity Test (acute oral toxicity, mice); details: mouse, in vivo, po
# Protocol: A predetermined amount of a solution or suspension of a test compound in corn oil was orally administered to male mice having a body weight of 19 to 23 g (0.2 ml per 10 g of the body weight). After 7 days, the number of killed mice was counted and the influences on the mice were examined.
# [7] = test system: sensitive green rice leafhopper (collected at Chigasaki); test: whole plant or invertebrate; type: in vivo; details: Nephotettix cincticeps, read-out: Mortality (%), Green Rice Leafhopper Collected at Chigasaki
# Summary of the method: (§2)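 Ten adult females per pot, either resistant (Nakagawara) or sensitive (Chigasaki), were caged on air-dried rice seedlings (2–3 leaves) sprayed at 3 ml/pot with 100 or 20 ppm of an emulsifiable concentrate dilution. Dead and living insects were counted after 24 hours; mortality is the mean of three pots.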
# [8] = test system: resistant green rice leafhopper (collected at Nakagawara); test: Test 3: Effect on Resistant Green Rice Leafhopper (collected at Nakagawara); type: in vivo, Nephotettix cincticeps Uhler (Green rice leafhopper); details: Nephotettix cincticeps, 24 h, read-out: Mortality (%), Green Rice Leafhopper Collected at Nakagawara
# Summary of the method: as §2
# [9] = test system: tobacco cutworm; test: Test 1: Effect on Tobacco Cutworm (leaf immersion), mortality after 24 hours; type: in vivo; details: second-instar larvae, 25° C
# Summary of the method: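 Second-instar tobacco cutworm larvae were kept at 25 °C on air-dried sweet-potato leaves that had been immersed for 10 s in test dilutions of 100 or 20 ppm from an emulsifiable concentrate. Mortality was scored at 24 h as the mean of three cups.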
# [10] = test system: two-spotted spider mite; test: Test 6: Effect on Two-Spotted Spider mite Adults; type: in vivo; details: Tetranychus urticae; 100 ppm; adults; 24 hours; 25° C; read-out: Mortality (%)
# Protocol: as §1
# A kidney bean leaf disc perforated with a cork borer (15 mm in diameter) was placed on water-impregnated absorbent cotton (2 cm×2 cm), and 10 adults of two-spotted spider mite were set free. A chemical dilution having a concentration of 100 ppm was applied with an applicator in an amount of 3 ml.
# The leaf disc-placed absorbent cotton was placed in a thermostat chamber maintained at 25° C. After 24 hours, the number of killed adults was counted and the mortality was calculated. The test was made on three leaf discs and the average value was calculated.
# [11] = read-out: Motality (%), Fifth-Instar Larvae
# [12] = read-out: Motality (%), Second-Instar Larvae
# [13] = 20 ppm, sensitive female adults, 24 hours
# [14] = 100 ppm, sensitive female adults, 24 hours
# [15] = 20 ppm, third-instar larvae, 24 hours, read-out: Mortality (%)
# [16] = 100 ppm, third-instar larvae, 24 hours, read-out: Mortality (%)
# [17] = 10 mg/m^2, male adults, agonized and killed after 24 hours, read-out: Mortality (%)
# [18] = 50 mg/m^2, male adults, agonized and killed after 24 hours, read-out: Mortality (%)
SMILES,mortality at 100 ppm [1] [%],LC50 at 48 h [5] [µg/mL],LD50 at 168 h [6] [mg/kg],"mortality at 20 ppm [7, 13] [%]","mortality at 100 ppm [7, 14] [%]",mortality at 20 ppm [8] [%],mortality at 100 ppm [8] [%],"mortality at 20 ppm [2, 15] [%]","mortality at 100 ppm [2, 16] [%]",mortality at 20 ppm [9] [%],mortality at 100 ppm [9] [%],further results
"COP(=O)(OC)OC=C(Cl)Cl [(g), O,O-dimethyl-O-(2,2-dichlorovinyl)phosphate, reference compound]",< 50,–,–,–,–,–,–,–,–,–,–,"mortality at 20 ppm ([2]; 24 h): 0%; mortality at 100 ppm ([2]; 24 h): 60%; mortality at 10 mg/m2 ([3]; 24 h): 40%; mortality at 50 mg/m2 ([3]; 24 h): 100%; mortality at 20 ppm [4, 11]: 10%; mortality at 100 ppm [4, 11]: 30%; mortality at 20 ppm [4, 12]: 20%; mortality at 100 ppm [4, 12]: 50%"
"COc1ccc(Oc2cccc(COCC(C)(C)c3ccc(SC)cc3)c2)cc1 [Compound 8, 3-(4-Methoxyphenoxy)benzyl 2-(4-methylthiophenyl)-2-methylpropyl ether]",80 to 95,> 10,> 500,–,–,–,–,–,–,–,–,–
"CC(C)(COCc1coc(Cc2ccccc2)c1)c1ccc(Cl)cc1 [Compound 12, 5-Benzyl-3-furylmethyl 2-(4-chlorophenyl)-2-methylpropyl ether]",80 to 95,> 10,> 500,–,–,–,–,–,–,–,–,–
CC(C)(COCc1cccc(Oc2ccccc2F)c1)c1ccc(Cl)cc1 [Compound 14],> 95,–,> 500,100,100,100,100,100,100,100,100,"mortality at 10 mg/m2 [3, 17]: 100%; mortality at 50 mg/m2 [3, 18]: 100%"
"CC(C)(COCc1cccc(Sc2ccccc2)c1)c1ccc(Cl)cc1 [Compound 15, 3-Phenylthiobenzyl 2-(4-chlorophenyl)-2-methylpropyl ether]",80 to 95,> 10,> 500,70,100,90,100,–,–,–,–,–
"CCC(C)(COCc1cccc(Oc2ccc(Br)cc2)c1)c1ccc(F)cc1 (stereo not shown) [Compound 16, 3-(4-bromophenoxy)benzyl 2-(4-fluorophenyl)-2-ethylpropyl ether]",–,–,> 500,90,100,100,100,–,–,–,–,mortality at 100 ppm [10]: 90%
"CSc1ccc(C(C)(C)COCc2cccc(Oc3ccccc3)c2)cc1 [Compound 24, 3-Phenoxybenzyl 2-(4-methylthiophenyl)-2-methylpropyl ether]",> 95,> 10,> 500,40,100,70,100,–,–,–,–,–
CCC(C)(COCc1cccc(Oc2cccc(Cl)c2)c1)c1cccc(C)c1 (stereo not shown) [Compound 29],80 to 95,> 10,> 500,–,–,–,–,–,–,–,–,–
"CCC(C)(COCc1cccc(Oc2ccccc2)c1)c1ccc(Cl)c(Cl)c1 (stereo not shown) [Compound 52, 3-Phenoxybenzyl 2-(3,4-dichlorophenyl)-2-ethylpropyl ether]",> 95,> 10,> 500,90,100,90,100,90,100,–,–,"mortality at 10 mg/m2 [3, 17]: 90%; mortality at 50 mg/m2 [3, 18]: 100%"
"CCC(C)(COCc1cccc(Oc2ccccc2)c1)c1ccc(C)cc1 (stereo not shown) [Compound 53, 3-Phenoxybenzyl 2-(4-methylphenyl)-2-ethylpropyl ether]",80 to 95,> 10,> 500,80,100,100,100,100,100,–,–,–
"CCOc1ccc(C(C)(C)COCc2cccc(Oc3ccccc3)c2)cc1 [Compound 55, 3-Phenoxybenzyl 2-(4-ethoxyphenyl)-2-methylpropyl ether]",> 95,> 0.1,> 500,–,–,100,100,–,–,100,100,"mortality at 20 ppm ([7]; 24 h): 100%; mortality at 100 ppm ([7]; 24 h): 100%; mortality at 20 ppm ([2]; 24 h): 100%; mortality at 100 ppm ([2]; 24 h): 100%; mortality at 10 mg/m2 ([3]; 24 h): 100%; mortality at 50 mg/m2 ([3]; 24 h): 100%; mortality at 20 ppm [4, 11]: 100%; mortality at 100 ppm [4, 11]: 100%; mortality at 20 ppm [4, 12]: 100%; mortality at 100 ppm [4, 12]: 100%"
"CCCCCOc1ccc(C(C)(C)COCc2cccc(Oc3ccccc3)c2)cc1 [Compound 62, 3-Phenoxybenzyl 2-[4-(n-pentyloxy)phenyl]-2-methylpropyl ether]",80 to 95,> 1,> 500,–,–,–,–,50,100,80,100,–
Cc1ccc(C(C)(C)COCc2cccc(Oc3ccccc3)c2)cc1Cl [Compound 73],> 95,> 10,> 500,–,–,–,–,90,100,100,100,"mortality at 10 mg/m2 [3, 17]: 100%; mortality at 50 mg/m2 [3, 18]: 100%"
